Results reported in US20150139901A1, “Radioactive Rhodium Complexes, Preparation Methods and Uses Thereof” (Institut National de la Sante et de la Recherche Medicale …, priority 2012, published 2015).

Assay: Stability test in human serum (15 h incubation, TLC control of supernatant)
Assay type: in vitro ADME
Conditions: controlled by TLC
Experimental: The compound of Example 4 (7.5-10.5 MBq) was prepared according to the previously described procedure. The resulting organic solution was evaporated until the final volume was about 50 μL. The complex was purified by silica gel chromatography using DCM/MeOH (99/1) as mobile phase. Activity was counted for each 500 μL aliquots and fractions of interest were concentrated under nitrogen flux. One ml of human serum was then added. The solution was gently stirred and divided into two aliquots incubated 15 h. respectively at 4° C. and 37° C. Then, serum proteins were precipitated by adding 750 μl of organic solvents mixture (ACN/DCM 100/1). Supernatant was separated by centrifugation at 4000 rpm and controlled by TLC.

(^211At)(1-benzyl-3-(4-nitrophenyl)imidazolidene)(cyclooctadiene) rhodium(+I) [Example 4]
degradation in human serum (incubated 15 h, result sentence prints 30° C. (method: 37° C.)): No degradation | degradation in human serum (incubated 15 h at 4° C.): No degradation
